The values that follow come from patent US20190100549A1, “FLAVONOIDE-TYPE COMPOUNDS BEARING AN O-RHAMNOSYL RESIDUE” (Universitaet Hamburg, priority 2016, published 2019).

The test system of experiment [1] is procollagen I. As to the kind of experiment: Procollagen I synthesis in NHDF (ELISA). It is filed as cell-based, human. The conditions noted are these: 20 μg/ml, 72 hours. How it is done: (§1) Tests were performed with normal human dermal fibroblast cultures at the 8th passage. Cells were grown in DMEM supplemented with glutamine at 2 mM, penicillin at 50 U/mL and streptomycin (50 μg/mL) and 10% of fetal calf serum (FCS) at 37° C. in a 5% CO2 atmosphere.
(§2) Fibroblasts were cultured for 24 hours before the cells were incubated with the test compounds for further 72 hours. After the incubation the culture supernatants were collected in order to measure the released quantities of procollagen I, VEGF, and fibronectin by means of ELISA. Reference test compounds were vitamin C (procollagen I), PMA (VEGF), and TGF-β (fibronectin).
(An ELISA detects its analyte on a solid surface through an enzyme-linked reagent.)

In experiment [2] the test system is lipid peroxides (C11-fluor) in NHEK cells. In words: Protection against UV-induced lipid peroxide in NHEK (C11-fluor probe, flow cytometry). It is filed as cell-based, human. The settings on record: 50 μM, 240 mJ/cm^2 UVB (3538 mJ/cm^2 UVA). Here is the method:
(§3) Pre-incubated NHEK were incubated with the test compound for 24 h. Then the specific fluorescence probe for the measurement of hydrogen peroxide (DHR) or lipid peroxides (C11-fluor) was added and incubated for 45 min. Irradiation occurred with in H2O2 determination UVB at 180 mJ/cm^2 (+UVA at 2839 mJ/cm^2) or UVB at 240 mJ/cm^2 (+UVA at 3538 mJ/cm^2) in lipid peroxide, respectively, using a SOL500 Sun Simulator lamp. After irradiation the cells were post-incubated for 30 min before flow-cytometry analysis.
For orientation: Flow cytometry measures light scatter and fluorescence of single cells or particles in a stream.

Experiment [3] deals with PGE2. In words: PGE2 release in stimulated NHEK (ELISA). The conditions noted are these: Homo sapiens, NHEK; PMA 1 μg/ml; 10^−6 M. It counts as cell-based, human. How it is done:
NHEK were pre-incubated for 24 h with the test compounds. The medium was replaced with the NHEK culture medium containing the inflammatory inducers (PMA or Poly I:C) and incubated for another 24 hours. Positive and negative controls ran in parallel. At the endpoint the culture supernatants were quantified of secreted IL-8, PGE2 and TNF-α by means of ELISA.

Experiment [4] has as its system hydrogen peroxide (DHR) in NHEK cells. In words: Protection against UV-induced H2O2 stress in NHEK (DHR probe, flow cytometry). It is filed as cell-based, human. The settings on record: 180 mJ/cm^2 UVB (2839 mJ/cm^2 UVA); for H2O2 (AU) (DHR GMFI): single values. How it is done:
as §3

The test system of experiment [5] is VEGF. In words: VEGF release in NHDF (ELISA). It counts as cell-based, human. The conditions noted are these: 1 μg/ml, 72 hours. How it is done:
as §1, §2

Experiment [6] relates to STAT3. In words: STAT3 activity in HeLa-STAT3-luc cells stimulated with IFN-γ (luciferase). It is filed as cell-based. The settings on record: +IFNγ 25 U/ml; for RLU 1 / RLU 2 / RLU 3: HeLa-STAT3-luc cells; for RLU 1: replicate well 1; for RLU 2: replicate well 2; for RLU 3: replicate well 3; for RLU specific: mean minus control; for Mean: mean of triplicate wells; for % Activation: IFNγ alone = 100% activation. Here is the method:
HeLa-STAT3-luc cells were stably transfected with the plasmid 4xM67 pTATA TK-Luc. Cells (20×10^3 cells/ml) were seeded 96-well plate the day before the assay. Then the cells were treated with the test substances for 15 min and then stimulated with IFN-γ 25 IU/ml. After 6 h, the cells were washed twice with PBS and lysed in 50 μl lysis buffer containing 25 mM Tris-phosphate (pH 7.8), 8 mM MgCl2, 1 mM DTT, 1% Triton X-100, and 7% glycerol during 15 min at RT in a horizontal shaker. Luciferase activity was measured using GloMax 96 microplate luminometer (Promega) following the instructions of the luciferase assay kit (Promega, Madison, Wis., USA). […] The experiments for each concentration of the test items were done in triplicate wells.

In experiment [7] the test system is HaCaT cells. In words: Glucose uptake (2-NBDG) in HaCaT keratinocytes. It is filed as cell-based. The arrangement: key to Measure 1 / Measure 2 / Measure 3 / Mean: total green object integrated intensity, GCU×μm2×Well. The conditions noted are these: +2NBDG 50 μM, 24 h; for Measure 1 / Measure 2 / Measure 3: HaCaT cells, fluorescence; for RFU specific: mean minus control; for Mean: mean of triplicate measurements; for % Glucose uptake: Rosiglitazone 80 μM = 100%. Here is the method:
HaCaT cells (5×10^4) were seeded in 96-well black plates and incubated for 24 h. Then, medium was removed and the cells cultivated in OptiMEM, labeled with 50 μM 2-NBDG (2-[N-(7-nitrobenz-2-oxa-1,3-diazol-4-yl) amino]-2-deoxy-D-glucose and treated with the test substances or the positive control, Rosiglitazone, for 24 h. Medium was removed and the wells were carefully washed with PBS and incubated in PBS (100l/well). Finally the fluorescence was measured using the Incucyte FLR software, the data were analyzed by the total green object integrated intensity (GCU×μm2×Well) of the imaging system IncuCyte HD (Essen BioScience). The fluorescence of Rosiglitazone is taken as 100% of glucose uptake, and the glucose uptake was calculated as (% Glucose uptake)=100(T−B)/(R−B), where T (treated) is the fluorescence of test substance-treated cells, B (Basal) is the fluorescence of 2-NBDG cells and […] is the fluorescence of cells treated with Rosiglitazone.

The subject of experiment [8] is NF-κB. As to the kind of experiment: NF-κB activity in NIH3T3-KBF-Luc cells stimulated with TNFα (luciferase). It is filed as cell-based. The settings on record: for % Activation: TNFα alone = 100. How it is done: NIH3T3-KBF-Luc cells were stably transfected with the KBF-Luc plasmid (Sancho (2003) Mol Pharmacol 63:429-438), which contains three copies of NF-κB binding site (from major histocompatibility complex promoter), fused to a minimal simian virus 40 promoter driving the luciferase gene. Cells (1×10^4 for NIH3T3-KBF-Luc) were seeded the day before the assay on 96-well plate. Then the cells were treated with the test substances for 15 min and then stimulated with 30 ng/ml of TNFα. After 6 h, the cells were washed twice with PBS and lysed in 50 μl lysis buffer containing 25 mM Tris-phosphate (pH 7.8), 8 mM MgCl2, 1 mM DTT, 1% Triton X-100, and 7% glycerol during 15 min at RT in a horizontal shaker. Luciferase activity was measured using a GloMax 96 microplate luminometer (Promega) following the instructions of the luciferase assay kit (Promega, Madison, Wis., USA). […] The experiments for each concentration of the test items were done in triplicate wells.

Experiment [9] has as its system fibronectin. As to the kind of experiment: Fibronectin synthesis in NHDF (ELISA). It counts as cell-based, human. The conditions noted are these: 10 ng/ml, 72 hours. How it is done:
as §1, §2

Where “and” joins values, the source holds several entries; their conditions need not be identical. Equal entries are not always repeated.

Consider `O=C1O[C@H]([C@@H](O)CO)C(O)=C1O` [Vitamin C], for which, in [1], the “Procollagen I % Control” value worked out at 316%, the “Procollagen I % Stimulation” value amounted to 216% and the “Procollagen I Mean” value stood at 5272 ng/mL. The “Procollagen I” value in experiment [1] (single values) is 4739 ng/mL and 5854 ng/mL and 5225 ng/mL.
As to `Cc1cc(C(C)(C)C)c(O)c(C(C)(C)C)c1` [BHT], in [2], the “C11-fluor(AU) Mean (1/GMFI)” value is on record as 3.3E−04 AU, the “lipid peroxide % Irradiated control” value amounted to 72% and the “lipid peroxide Protection %” value was 37%. In addition, in [2] (single values), the “C11-fluor(AU) 1/GMFI” value is 3.2E−04 AU and 3.3E−04 AU and 3.5E−04 AU; the “C11-fluor(AU) GMFI” value is 3139 AU and 3047 AU and 2877 AU.
Take `C[C@@H]1C[C@H]2[C@@H]3CCC4=CC(=O)C=C[C@]4(C)[C@@]3(F)[C@@H](O)C[C@]2(C)[C@@]1(O)C(=O)CO` [Dexamethasone, reference compound]: the inhibition at 1 µM in experiment [3] stood at 9%.
Still for that read-out and setting: for `COc1ccc2c(c1)c(CC(=O)O)c(C)n2C(=O)c1ccc(Cl)cc1` [Indomethacin, reference compound] the value was 106%.
In the case of `COc1ccc(O)c(C(C)(C)C)c1` [BHA], in [4] (100 μM), the “H2O2 % irradiated control” value is recorded as 42%; the “H2O2 (AU) Mean” value is 776 AU; the “H2O2 Protection %” value was determined as 70%; the “H2O2 (AU) (DHR GMFI)” value was 740 AU and 834 AU and 754 AU.
As for `Cc1c(C)c2c(c(C)c1O)CC[C@@](C)(CCC[C@H](C)CCC[C@H](C)CCCC(C)C)O2` [Vit. E], in [4] (50 μM), the “H2O2 % irradiated control” value is on record as 35%; the “H2O2 (AU) Mean” value was 655 AU; the “H2O2 Protection %” value is 78%; the “H2O2 (AU) (DHR GMFI)” value is 628 AU and 650 AU and 687 AU.
As to `CCCCCCCCCCCCCC(=O)O[C@@H]1[C@@H](C)[C@@]2(O)[C@@H](C=C(CO)C[C@]3(O)C(=O)C(C)=C[C@@H]23)[C@@H]2C(C)(C)[C@]12OC(C)=O` [PMA, reference compound], in experiment [5], the “Mean VEGF” value turned out to be 148 pg/mL, the “VEGF % Control” value amounted to 205% and the “VEGF % Stimulation” value is 105%. Besides, the “VEGF” value in experiment [5] (single values) was 150 pg/mL and 143 pg/mL.
As to Diosmetin-5-O-α-L-rhamnoside [DR2], in [6] (25 μM test substance), the “RLU 1” value is listed as 12137 RLU, the “RLU 2” value was 10269 RLU, the “RLU 3” value is 9275 RLU and the RLU specific was 8553 RLU. Besides, in experiment [6] (25 μM test substance), the Mean amounted to 10560 RLU and the “% Activation” value is 68.33%. Further, in experiment [6] (50 μM test substance), the “RLU 1” value is on record as 13005 RLU, the “RLU 2” value is recorded as 10547 RLU, the “RLU 3” value stood at 10143 RLU and the RLU specific is listed as 9224 RLU. Moreover, in [6] (50 μM test substance), the Mean came out at 11232 RLU and the “% Activation” value was determined as 73.69%. Moreover, in experiment [7] (25 μM test substance), the “Measure 1” value is given as 632398, the “Measure 2” value is recorded as 940240, the “Measure 3” value was found to be 197738 and the RFU specific is given as 583811 RFU. In experiment [7] (25 μM test substance), the Mean came to 590125 and the “% Glucose uptake” value is given as 67.2%. In addition, in experiment [7] (50 μM test substance), the “Measure 1” value came to 2958363, the “Measure 2” value worked out at 1297231, the “Measure 3” value turned out to be 2493030 and the RFU specific came out at 2243227 RFU. For the same molecule, in experiment [7] (50 μM test substance), the Mean worked out at 2249541 and the “% Glucose uptake” value is 258.2%. In addition, in [8] (10 μM + 30 ng/ml TNFα), the “RLU 1” value came to 211150 RLU, the “RLU 2” value worked out at 215320 RLU, the “RLU 3” value turned out to be 213260 RLU and the “RLU MEAN” value was 213243 RLU. Also, in experiment [8] (10 μM + 30 ng/ml TNFα), the RLU specific came out at 189880 RLU and the “% Activation” value was 145.6%. In addition, in experiment [8] (25 μM + 30 ng/ml TNFα), the “RLU 1” value came out at 245900 RLU, the “RLU 2” value was determined as 241550 RLU, the “RLU 3” value came out at 234880 RLU and the “RLU MEAN” value is reported as 240777 RLU. For the same molecule, in experiment [8] (25 μM + 30 ng/ml TNFα), the RLU specific is given as 217413 RLU and the “% Activation” value stood at 166.7%.
With TGF-β, in [9], the “Fibronectin % Control” value is on record as 181% and the “Fibronectin % Stimulation” value is listed as 81%. In experiment [9] (single values), the “Fibronectin” value was 10870 ng/mL and 11178 ng/mL and 11128 ng/mL.

By inhibition is commonly meant the relative decrease from the control value, in per cent.
